US4289645A (priority 1980, dated 1981)
Read-outs that look alike come from different tables or passages of the source.

Columns and labels:
[1] = Test for identification of mu-amines compatible with hydroquinone (Example 6); assay type: physicochemical; parameters: key: An asterisk (*) in a column indicates a positive result; conditions: for Step 4: Possible mu-Amine / Step 4: Not mu-Amine: 10 g amine, 10 g hydroquinone, 80 g water; for Step 4: Possible mu-Amine: no precipitate after 3 min stirring; for Step 6: Possible mu-Amine: passes unhindered through 5 micron filter; for Step 4: Not mu-Amine: precipitation after 3 min stirring
Description: The steps of this test are as follows:
Step 1: To a 1 pint glass jar which can be equipped with a cover lid add 80.0 grams of demineralized water and 10.0 grams of the amine to be tested.
Step 2: Stir the contents of the jar for one minute, preferably via a magnetic stirrer. If the amine is a solid, stir until complete dissolution into the water is attained.
Step 4: Stir the contents of the jar for three minutes. If precipitation within the jar occurs, then the amine is not a mu-amine. If no precipitate formation within the jar is evident, the amine may possibly be a mu-amine, so proceed to Step 5.
Step 5: Seal the jar and stir vigorously for seven minutes.
Step 6: After stirring, filter the contents of the jar through a 5 micron filter paper via suction. […] If the contents of the jar pass unhindered through the filter paper, the amine may possibly be a mu-amine and Steps 7 and 8 should be performed.
Step 7: Remove a 1.0 ml aliquot from the filtration flask or receiver (i.e., an aliquot of the former jar contents) with a syringe.
Step 8: Inject the contents of the syringe into the room temperature oxygen scavenger apparatus described in Example 4 above which contains air-saturated, demineralized water and sufficient sodium hydroxide to result in a pH 9-10 range in the reaction flask. If at least 70% of the dissolved oxygen initially present in the air-saturated water is removed within one minute after injection, the amine is definitely a mu-amine. If at least 70% of the dissolved oxygen is not removed within one minute, then the amine is not a mu-amine.
Reported below in Table 7 are the results of tests using the above described procedure for various amines. An asterisk (*) in a column indicates a positive result.

[2] = Oxygen scavenging of hydroquinone/mu-amine, ambient temperature (Example 7); conditions: Table 8; 60 seconds, 23-25 °C, 103 ppm hydroquinone + 103 ppm mu-amine
Protocol: The flask was filled with deionized water which had been stripped of some dissolved oxygen by bubbling nitrogen through a diffuser stone. The pH was adjusted to the desired level with sodium hydroxide. The flask was sealed with a rubber septum, the dissolved oxygen probe and the pH electrode. A magnetic stirrer bar was left in the flask for mixing. The mixer was turned on, and dissolved oxygen and temperature readings were recorded until the dissolved oxygen reached a constant value. Next, the appropriate quantity of additive was injected through the septum using a hypodermic syringe. The initial mole ratio of treatment to dissolved oxygen was determined by weighing feed chemical and measuring the oxygen concentration. […] Dissolved oxygen and temperature readings were then taken at appropriate time intervals.
Using the same apparatus and procedure as described in Example 4 above, oxygen scavenging experiments were performed by injecting 1 ml of stock solution into a glass vessel containing 1070 ml of air-saturated, demineralized water adjusted to the appropriate pH with 7 N sodium hydroxide. The results of these tests are given in Table 8 below in terms of % oxygen removal at 60 seconds. […] The final pH values indicated are for the test water.

[3] = Compatibility of amines with hydroquinone in solution (description); assay type: physicochemical
Description: To provide convenient single-drum treatments, it was decided to test-formulate various dioxo aromatic compounds with neutralizing amines.

[4] = cited from earlier work
[5] = added to saturated aqueous hydroquinone (10.0 g hydroquinone, 89.5 g water)
Protocol: Volumes of mu-amines required to effect dissolution were recorded and converted to weights via density.

[6] = Oxygen scavenging at various concentrations and weight ratios of hydroquinone and mu-amine (Example 9)
Protocol: Using the same apparatus and procedure as described in Example 4 above, oxygen scavenging experiments were performed by injecting 1 ml of stock solution into a glass vessel containing 1070 ml of air-saturated, demineralized water adjusted to the appropriate pH with 7 N sodium hydroxide. […] The final pH values indicated are for the test water.
The stock solution concentrations are presented in terms of weight % aqueous. The stock solutions were each 100 grams total. […] The tests were conducted at ambient temperature (23°-25° C.).

Molecule | Step 4: Possible mu-Amine [1] | Step 6: Possible mu-Amine [1] | % O2 Removed [2] [%] | compatibility with hydroquinone in solution [3] | Step 4: Not mu-Amine [1] | also measured
CCC(C)N (centres unmarked) [sec-Butylamine] | * | * | 74 | compatible with hydroquinone in solution | – | –
NC1CCCCC1 [Cyclohexylamine, reference compound] | – | – | – | precipitated out of solution | * | –
Oc1cccc(O)c1 [resorcinol] | – | – | – | – | – | % O2 Removed ([4]; Table 1, 78±3 °C, 4±1 psig, about 4 min, feedwater 58-100 ppm, initial O2 1.8-2.3 ppm): 0%; oxygen scavenging in the test water ([4]; conclusion from Table 1): ineffective
NCCN [Ethylenediamine] | * | * | 85 | – | – | –
C1COCCN1 [Morpholine, reference compound] | – | – | – | precipitated out of solution | * | –
NCCCCCCN [Hexamethylenediamine, reference compound] | – | – | – | – | * | –
CN(C)CCCN [Dimethylaminopropylamine] | * | * | 76 | – | – | mu-amine required to effect dissolution [5]: 1.7 grams; % O2 Removed At 60 Seconds ([6]; 1.5% mu-amine, 10.0% hydroquinone (6.67:1)): 94%; % O2 Removed At 60 Seconds ([6]; 30.0% mu-amine, 10.0% hydroquinone (1:3)): 99%; % O2 Removed At 60 Seconds ([6]; 90.0% mu-amine, 10.0% hydroquinone (1:9)): 98%
NCCNCCNCCN [Triethylenetetramine] | * | * | 89 | – | – | –
CC(C)(C)N [tert-Butylamine, reference compound] | – | – | – | insoluble mass | * | –
Dimethyl(iso)propanolamine | * | * | 73 | – | – | –
